The source of these data is patent US7671080B2, “1-benzylindole-2-carboxamide derivatives” (N.V. Organon, priority 2005, dated 2010).

Each structure is given as a SMILES string.

The target of this test is T1, human cannabinoid CB1 receptor (Homo sapiens, UniProt P21554).
T1 construct: expressed in transfected cells; co-transfected with AP1-luciferase reporter
T1 sequence (P21554 whole entry): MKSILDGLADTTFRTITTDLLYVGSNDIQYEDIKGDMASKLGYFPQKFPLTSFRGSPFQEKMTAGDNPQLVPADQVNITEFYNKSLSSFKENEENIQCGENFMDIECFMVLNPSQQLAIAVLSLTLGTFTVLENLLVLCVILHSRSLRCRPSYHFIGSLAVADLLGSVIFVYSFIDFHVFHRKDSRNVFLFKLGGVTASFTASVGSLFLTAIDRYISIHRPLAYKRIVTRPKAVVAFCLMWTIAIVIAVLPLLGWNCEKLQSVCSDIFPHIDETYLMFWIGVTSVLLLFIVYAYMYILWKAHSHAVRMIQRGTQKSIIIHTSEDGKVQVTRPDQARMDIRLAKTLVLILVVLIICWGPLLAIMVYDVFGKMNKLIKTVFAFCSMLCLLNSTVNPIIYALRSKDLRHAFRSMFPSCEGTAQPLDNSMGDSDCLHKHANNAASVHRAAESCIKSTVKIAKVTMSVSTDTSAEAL
Kind of test: In-vitro determination of efficacy and potency at the human CB1 receptor expressed in CHO cells (AP1-luciferase reporter, antagonism of CP-55,940). The class given is cell-based. Here is the method:
In-Vitro Determination of Efficacy and Potency at the Human CB1 Receptor Expressed in CHO Cells
Chinese hamster ovary (CHO) cells, which stably express the human cannabinoid CB1 receptor were co-transfected with a luciferase reporter gene which is under the regulatory control of an AP1-response element (AP1 luc). The cells were suspended in commercially available DMEM/F12 nut mix without phenol red, containing penicillin/streptomycin (50 U/50 μg/ml) and fungizone (1 μg/ml) before being seeded into white walled, white bottomed 96 well plates at a density of 3×10^4 cells per well (100 μl final volume) and incubated overnight (approximately 18 hrs at 37° C., 5% CO2 in air) prior to assay.
10 μl of each dilution was added to the relevant wells in the cell plate to give a final concentration range of 10 μM to 0.1 nM.
Plates were incubated for 5 hours at 37° C. before addition of 100 μl LucLite reagent to each well (reconstituted as per manufacturer's instructions). Plates were sealed with Top Seal and counted on the Packard TopCount (single photon counting, 0.01 minute count time, no count delay).
Following stimulation of the CB1 receptor, luciferase expression is enhanced and this can be measured as an increase in enzyme activity. This reporter system is therefore used as a functional test to evaluate the potency of antagonist compounds at the CB1 receptor. Data was analysed using curve fitting and a minimum sum of squares method to produce pEC50 values.
The term IC50 denotes the concentration that gives 50% inhibition. A high value points to a need for much substance. `N#Cc1ccc2c(c1)cc(C(=O)NC[C@H]1CCCC[C@@H]1O)n2Cc1cccc(OC(F)(F)F)c1` (relative stereo) [Example 34, trans-5-Cyano-1-(3-trifluoromethoxybenzyl)-1H-indole-2-carboxylic acid (2-hydroxy-cyclohexylmethyl)amide] yielded an IC50 below 1 nM. As for `CN1CCN(c2cccc(Cn3c(C(=O)NC[C@H]4CCCC[C@@H]4O)cc4cc(C#N)ccc43)c2)CC1` (relative stereo) [Example 47, trans-5-Cyano-1-[3-(4-methyl-piperazin-1-yl)-benzyl]-1H-indole-2-carboxylic acid (2-hydroxy-cyclohexylmethyl)amide], the figure is 10 to 100 nM. As for `N#Cc1ccc2c(c1)cc(C(=O)N[C@@H]1CCC[C@H]1O)n2Cc1cccc(OC(F)(F)F)c1` (relative stereo) [Example 54, trans-5-Cyano-1-(3-trifluoromethoxybenzyl)-1H-indole-2-carboxylic acid (2-hydroxy-cyclopentyl)amide], the figure is 1 to 10 nM. The same measure for `CC(C)OCCCNC(=O)c1cc2cc(Cl)ccc2n1Cc1cccc(OC(F)(F)F)c1` [Example 15, 5-Chloro-1-(3-trifluoromethoxybenzyl)-1H-indole-2-carboxylic acid (3-isopropoxypropyl)amide]: 10 to 100 nM. In turn, `COc1ccc(OC(F)(F)F)cc1Cn1c(C(=O)NCC(C)(C)CO)cc2cc(C#N)ccc21` [Example 22, 5-Cyano-1-(2-methoxy-5-trifluoromethoxybenzyl)-1H-indole-2-carboxylic acid (3-hydroxy-2,2-dimethylpropyl)amide] yielded an IC50 of 1 to 10 nM. As for `N#Cc1ccc2c(c1)cc(C(=O)NCC1(O)CCCCC1)n2Cc1cccc(OC(F)(F)F)c1` [Example 60, 5-Cyano-1-(3-trifluoromethoxybenzyl)-1H-indole-2-carboxylic acid (1-hydroxy-cyclohexylmethyl)amide], the figure is 1 to 10 nM; as for `Cc1ccc(C(F)(F)F)cc1Cn1c(C(=O)NCCC(C)(C)O)cc2cc(C#N)ccc21` [Example 64, 5-Cyano-1-(2-methyl-5-trifluoromethylbenzyl)-1H-indole-2-carboxylic acid (3-hydroxy-3-methylbutyl)amide], 1 to 10 nM; as for `N#Cc1ccc2c(c1)cc(C(=O)NCC1(O)CCCC1)n2Cc1cccc(OC(F)(F)F)c1` [Example 65, 5-Cyano-1-(3-trifluoromethoxybenzyl)-1H-indole-2-carboxylic acid (1-hydroxy-cyclopentylmethyl)amide], 1 to 10 nM. The same measure for `N#Cc1ccc2c(c1)cc(C(=O)NCC1(CO)CCCC1)n2Cc1cccc(OC(F)(F)F)c1` [Example 68, 5-Cyano-1-(3-trifluoromethoxybenzyl)-1H-indole-2-carboxylic acid (1-hydroxymethyicyclopentylmethyl)amide]: below 1 nM. The same measure for `CC(O)(CCNC(=O)c1cc2cc(C#N)ccc2n1Cc1cccc(OC(F)(F)F)c1)C(F)(F)F` (stereo not shown) [Example 71, 5-Cyano-1-(3-trifluoromethoxybenzyl)-1H-indole-2-carboxylic acid (4,4,4-trifluoro-3-hydroxy-3-methylbutyl)amide]: 1 to 10 nM.
